# Measured values taken from US10858367B2, “Compounds” (GLAXOSMITHKLINE INTELLECTUAL PROPERTY DEVELOPMENT LIMITED, priority 2017, dated 2020).
# Where “and” joins values, the source holds several entries; their conditions need not be identical. Identical values can stand only once.
# Target: T1, LRRK2 Ser935 phosphorylation in SH-SY5Y cells over-expressing recombinant full length LRRK2 (Homo sapiens, UniProt Q5S007)
# T1 construct: A BacMam virus expressing full length recombinant LRRK2 was purchased from Invitrogen; host or cells: SH-SY5Y human neuroblastoma cells transduced with BacMam LRRK2 virus
# T1 sequence (Q5S007 whole entry): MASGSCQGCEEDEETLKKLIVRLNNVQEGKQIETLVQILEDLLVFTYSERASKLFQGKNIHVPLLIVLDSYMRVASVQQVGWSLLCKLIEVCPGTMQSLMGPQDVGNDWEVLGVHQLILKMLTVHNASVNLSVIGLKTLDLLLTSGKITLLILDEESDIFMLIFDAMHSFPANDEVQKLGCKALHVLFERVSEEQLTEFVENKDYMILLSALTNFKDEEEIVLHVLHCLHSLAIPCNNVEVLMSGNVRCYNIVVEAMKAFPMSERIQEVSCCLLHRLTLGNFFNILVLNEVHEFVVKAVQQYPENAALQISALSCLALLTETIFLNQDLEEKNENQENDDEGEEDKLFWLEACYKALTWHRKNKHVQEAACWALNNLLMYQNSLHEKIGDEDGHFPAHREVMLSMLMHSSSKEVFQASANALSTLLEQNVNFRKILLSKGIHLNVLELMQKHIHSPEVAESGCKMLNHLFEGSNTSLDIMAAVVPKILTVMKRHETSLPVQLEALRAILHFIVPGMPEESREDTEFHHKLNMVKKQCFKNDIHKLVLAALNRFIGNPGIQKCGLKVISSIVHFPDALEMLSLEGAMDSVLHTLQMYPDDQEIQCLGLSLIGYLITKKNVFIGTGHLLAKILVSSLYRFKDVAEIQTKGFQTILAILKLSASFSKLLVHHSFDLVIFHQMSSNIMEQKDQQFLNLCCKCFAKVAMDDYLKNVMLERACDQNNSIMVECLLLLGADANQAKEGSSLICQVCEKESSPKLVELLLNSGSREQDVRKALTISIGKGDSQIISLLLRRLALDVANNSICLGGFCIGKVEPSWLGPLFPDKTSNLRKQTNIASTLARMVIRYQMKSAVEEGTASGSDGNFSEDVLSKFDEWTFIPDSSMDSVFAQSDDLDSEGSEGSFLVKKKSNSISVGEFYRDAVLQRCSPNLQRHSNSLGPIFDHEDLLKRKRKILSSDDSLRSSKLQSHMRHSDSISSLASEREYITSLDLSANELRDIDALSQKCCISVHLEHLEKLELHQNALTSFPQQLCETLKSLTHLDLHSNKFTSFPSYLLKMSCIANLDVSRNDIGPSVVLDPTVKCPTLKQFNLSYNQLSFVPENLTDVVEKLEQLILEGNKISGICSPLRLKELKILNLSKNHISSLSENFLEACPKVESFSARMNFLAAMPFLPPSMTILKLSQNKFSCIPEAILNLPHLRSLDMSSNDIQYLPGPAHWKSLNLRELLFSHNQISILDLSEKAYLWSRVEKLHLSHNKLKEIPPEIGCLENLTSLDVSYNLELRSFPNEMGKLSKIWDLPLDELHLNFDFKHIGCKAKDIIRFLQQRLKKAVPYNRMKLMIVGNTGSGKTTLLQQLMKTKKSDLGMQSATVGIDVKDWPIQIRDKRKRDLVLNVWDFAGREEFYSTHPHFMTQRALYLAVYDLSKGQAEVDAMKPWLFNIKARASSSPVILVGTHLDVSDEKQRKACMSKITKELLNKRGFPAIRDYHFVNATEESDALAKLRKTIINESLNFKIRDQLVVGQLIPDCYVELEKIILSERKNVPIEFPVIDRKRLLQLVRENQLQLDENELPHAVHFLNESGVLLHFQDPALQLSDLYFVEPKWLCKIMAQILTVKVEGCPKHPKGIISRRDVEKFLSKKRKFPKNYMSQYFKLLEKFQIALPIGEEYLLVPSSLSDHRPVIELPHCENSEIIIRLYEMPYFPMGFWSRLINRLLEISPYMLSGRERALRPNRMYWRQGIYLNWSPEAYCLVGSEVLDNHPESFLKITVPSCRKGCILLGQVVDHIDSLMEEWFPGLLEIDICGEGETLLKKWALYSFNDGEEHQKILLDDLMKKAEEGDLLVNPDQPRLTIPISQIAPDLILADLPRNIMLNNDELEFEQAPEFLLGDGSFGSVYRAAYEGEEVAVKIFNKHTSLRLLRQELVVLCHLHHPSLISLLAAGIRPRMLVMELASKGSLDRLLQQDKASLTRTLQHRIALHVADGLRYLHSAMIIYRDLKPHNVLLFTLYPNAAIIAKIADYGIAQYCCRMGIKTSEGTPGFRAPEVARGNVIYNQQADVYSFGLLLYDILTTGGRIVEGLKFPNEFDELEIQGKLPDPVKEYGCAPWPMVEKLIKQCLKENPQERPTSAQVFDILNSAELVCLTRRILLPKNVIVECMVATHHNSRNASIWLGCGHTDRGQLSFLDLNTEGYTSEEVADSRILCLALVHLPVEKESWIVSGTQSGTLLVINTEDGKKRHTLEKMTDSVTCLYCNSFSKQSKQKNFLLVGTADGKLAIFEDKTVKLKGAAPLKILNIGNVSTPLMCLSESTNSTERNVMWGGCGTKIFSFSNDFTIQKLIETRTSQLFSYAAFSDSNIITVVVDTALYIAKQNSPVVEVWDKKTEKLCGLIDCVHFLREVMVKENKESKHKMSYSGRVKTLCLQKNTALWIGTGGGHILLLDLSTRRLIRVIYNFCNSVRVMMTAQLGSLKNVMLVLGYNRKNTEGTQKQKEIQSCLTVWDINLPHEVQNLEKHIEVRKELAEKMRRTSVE
# Assay: Recombinant cellular LRRK2 AlphaScreen assay
# Assay type: cell-based
# Settings: human neuroblastoma SH-SY5Y cells, BacMam full length LRRK2, 60 minutes with compound, read-out: pIC50 in the recombinant cellular LRRK2 AlphaScreen assay (converted)
# From the text: b. Recombinant Cellular LRRK2 AlphaScreen Assay
# To determine the activity of compounds against LRRK2 kinase activity in cells, the observed LRRK2 kinase-dependent modulation of LRRK2 Ser 935 phosphorylation (Dzamko et al., 2010, Biochem. J. 430: 405-413) was utilized to develop a quantitative 384 well plate-based immunoassay of LRRK2 Ser935 phosphorylation in the human neuroblastoma cell line SH-SY5Y, engineered to over-express recombinant full length LRRK2 protein.
# A BacMam virus expressing full length recombinant LRRK2 was purchased from Invitrogen and amplified by inoculation of SF-9 cells at MOI 0.3 for 4-5 days in Sf-900 III SFM medium supplemented with 3% fetal bovine serum. Infected cell cultures were then centrifuged at 2000 g for 20 minutes, viral supernatant titer determined by anti-gp64 plaque assay and stored at 4° C.
# Affinity-purified anti-phospho LRRK2 Ser935 sheep polyclonal antibody (Dzamko et al., 2010, Biochem. J. 430: 405-413) was biotinylated by standard methods (PerkinElmer). Anti-LRRK2 rabbit polyclonal antibody was purchased from Novus Biologicals. AlphaScreen Protein A IgG Kit (including acceptor and donor beads) was purchased from Perkin Elmer.
# SH-SY5Y cells were grown in DMEM/F12 medium with 10% dialysed fetal bovine serum and harvested by treatment with 0.5% trypsin-EDTA for 5 minutes at 37° C. followed by centrifugation at 1000 rpm for 4 minutes. The cell pellet was resuspended in Opti-MEM reduced serum media (Invitrogen) at 200,000 cells/ml and mixed with the BacMam LRRK2 virus at MOI=50. 50 μl cell solutions were then dispensed to each well of a 384-well plate and incubated at 37° C., 5% CO2 for 24 hours.
# Serial dilutions of test compounds were prepared in Opti-MEM reduced serum media (Invitrogen) and 5.6 ul transferred from compound plate to cell assay plate to achieve a top final assay concentration of 10 uM. DMSO was used in certain wells as controls. Cells were incubated at 37° C., 5% CO2 for 60 minutes. The medium was then removed and cells lysed by addition of 20 ul cell lysis buffer (Cell Signaling Technology) and incubation at 4° C. for 20 minutes. 10 ul of antibody/acceptor bead mix [(1/1000 biotinylated-pS935 LRRK2 antibody, 1/1000 total-LRRK2 antibody, 1/100 Acceptor beads in AlphaScreen detection buffer (25 mM Hepes (pH 7.4), 0.5% Triton X-100, 1 mg/ml Dextran 500 and 0.1% BSA)] was then added to each well and plates incubated for 2 hours at ambient temperature in the dark. 10 μl of donor beads solution (1/33.3 donor beads in AlphaScreen detection buffer) was then added to each well. Following incubation for a further 2 hours at ambient temperature in the dark, plates were read on an EnVision™ plate reader at emission 520-620 nm with excitation 680 nm. Dose response curve data was based on sigmoidal dose-response model.
row,IC50,SMILES
1,≤ 1000 nM,"Cc1nc(N2C[C@@H]3C[C@H]2CO3)cc(-n2ncc3cc(C)c(C4CCN(CCO)CC4)cc32)n1 [Example E52, 2-(4-(1-(6-((1S,4S)-2-oxa-5-azabicyclo[2.2.1]heptan-5-yl)-2-methylpyrimidin-4-yl)-5-methyl-1H-indazol-6-yl)piperidin-1-yl)ethanol]"
2,≤ 1000 nM,"COc1nc(N2CC3CC2CC3C(=O)O)cc(-n2ncc3cc(Cl)c(O[C@@H]4CCOC4)cc32)n1 (single isomer, unassigned) [Example E85]"
3,≤ 1000 nM,"Cc1nc(N2CC3(CO)CC2CO3)cc(-n2ncc3cc(C)c(C4CCN(C5CCOC5)CC4)cc32)n1 (single isomer, unassigned) [Example E153, (5-(2-methyl-6-(5-methyl-6-(1-(tetrahydrofuran-3-yl)piperidin-4-yl)-1H-indazol-1-yl)pyrimidin-4-yl)-2-oxa-5-azabicyclo[2.2.1]heptan-1-yl)methanol]"
4,≤ 1000 nM and 20 nM,"COc1nc(N2C[C@H]3C[C@@H]2CO3)cc(-n2ncc3cc(C)c(C4CCN(C5COC5)CC4)cc32)n1 [Example E1, (1R,4R)-5-(2-methoxy-6-(5-methyl-6-(1-(oxetan-3-yl)piperidin-4-yl)-1H-indazol-1-yl)pyrimidin-4-yl)-2-oxa-5-azabicyclo[2.2.1]heptane]"
5,≤ 1000 nM,"COc1nc(N2C[C@H]3C[C@@H]2CO3)cc(-n2ncc3cc(C)c(C4CCN(C5CCOC5)CC4)cc32)n1 (single isomer, unassigned) [Example E13]"
6,≤ 1000 nM,"COc1nc(N2C[C@H]3C[C@@H]2CO3)cc(-n2ncc3cc(C)c(C4CCC(N5CCOCC5)CC4)cc32)n1 (single isomer, unassigned) [Example E71]"
7,≤ 1000 nM,"COc1nc(N2C[C@H]3C[C@@H]2CO3)cc(-n2ncc3cc(C)c(C4CCN(CCO)CC4)cc32)n1 [Example E27, 2-(4-(1-(6-((1R,4R)-2-oxa-5-azabicyclo[2.2.1]heptan-5-yl)-2-methoxypyrimidin-4-yl)-5-methyl-1H-indazol-6-yl)piperidin-1-yl)ethanol]"
8,≤ 1000 nM,"Cc1nc(N2C[C@@H]3C[C@H]2CO3)cc(-n2ncc3cc(Cl)c(N4CCC(C)(O)CC4)cc32)n1 [Example E33, 1-(1-(6-((1S,4S)-2-oxa-5-azabicyclo[2.2.1]heptan-5-yl)-2-methylpyrimidin-4-yl)-5-chloro-1H-indazol-6-yl)-4-methylpiperidin-4-ol]"
9,≤ 1000 nM,"Cc1nc(N2CC3CC2CO3)cc(-n2ncc3cc(C)c(C4CCN(CCO)CC4F)cc32)n1 (single isomer, unassigned) [Example E23]"
10,≤ 1000 nM,"Cc1nc(N2CC3CC2CC3C(=O)O)cc(-n2ncc3cc(C)c(C4CCOCC4)cc32)n1 (single isomer, unassigned) [Example E82, 2-{2-Methyl-6-[5-methyl-6-(tetrahydro-pyran-4-yl)-indazol-1-yl]-pyrimidin-4-yl}-2-aza-bicyclo[2.2.1]heptane-5-carboxylic Acid]"
11,≤ 1000 nM,"COCCN1CCC(c2cc3c(cnn3-c3cc(N4C[C@@H]5C[C@H]4CO5)nc(OC)n3)cc2C)CC1 [Example E36, (1S,4S)-5-(2-methoxy-6-(6-(1-(2-methoxyethyl)piperidin-4-yl)-5-methyl-1H-indazol-1-yl)pyrimidin-4-yl)-2-oxa-5-azabicyclo[2.2.1]heptane]"
12,≤ 1000 nM,"Cc1nc(N2C[C@H]3C[C@@H]2CO3)cc(-n2ncc3cc(Cl)c(N4CCC(C)(O)CC4)cc32)n1 [Example E34, 1-(1-(6-((1R,4R)-2-oxa-5-azabicyclo[2.2.1]heptan-5-yl)-2-methylpyrimidin-4-yl)-5-chloro-1H-indazol-6-yl)-4-methylpiperidin-4-ol]"
13,≤ 1000 nM,"Cc1nc(N2C[C@@H]3C[C@H]2CO3)cc(-n2ncc3cc(C)c(C4CCN(C5COC5)CC4)cc32)n1 [Example E40, (1S,4S)-5-(2-methyl-6-(5-methyl-6-(1-(oxetan-3-yl)piperidin-4-yl)-1H-indazol-1-yl)pyrimidin-4-yl)-2-oxa-5-azabicyclo[2.2.1]heptane]"
14,1070 nM,"Cc1nc(N2C[C@H]3C[C@@H]2CN3C2COC2)cc(-n2ncc3cc(C)c([C@H]4CC[C@](C)(O)CC4)cc32)n1 [Example E31, Trans-1-methyl-4-(5-methyl-1-(2-methyl-6-((1R,4R)-5-(oxetan-3-yl)-2,5-diazabicyclo[2.2.1]heptan-2-yl)pyrimidin-4-yl)-1H-indazol-6-yl)cyclohexanol]"
15,≤ 1000 nM,"Cc1nc(N2C[C@H]3C[C@@H]2CO3)cc(-n2ncc3cc(C)c(C4CCN(CCO)CC4)cc32)n1 [Example E51, 2-(4-(1-(6-((1R,4R)-2-oxa-5-azabicyclo[2.2.1]heptan-5-yl)-2-methylpyrimidin-4-yl)-5-methyl-1H-indazol-6-yl)piperidin-1-yl)ethanol]"
16,≤ 1000 nM,"[2H]C([2H])([2H])Oc1nc(N2C[C@@H]3C[C@H]2CO3)cc(-n2ncc3cc(C)c(C4CCN(C5COC5)CC4)cc32)n1 [Example E73, (1S,4S)-5-(6-(5-methyl-6-(1-(oxetan-3-yl)piperidin-4-yl)-1H-indazol-1-yl)-2-(trideuteriummethoxy)pyrimidin-4-yl)-2-oxa-5-azabicyclo[2.2.1]heptane]"
17,≤ 10 nM,"COc1nc(N2C[C@H]3C[C@@H]2CO3)cc(-n2ncc3cc(C)c(C4CCN(CCO)CC4F)cc32)n1 (single isomer, unassigned) [Example E17]"
18,≤ 1000 nM,"COc1nc(N2C[C@@H]3C[C@H]2CO3)cc(-n2ncc3cc(C)c(C4CCNCC4)cc32)n1 [Example E59, (1S,4S)-5-(2-methoxy-6-(5-methyl-6-(piperidin-4-yl)-1H-indazol-1-yl)pyrimidin-4-yl)-2-oxa-5-azabicyclo[2.2.1]heptane]"
19,≤ 1000 nM,"Cc1nc(N2CC3CC2CO3)cc(-n2ncc3cc(C)c(C4CCN([C@H]5CCOC5)CC4O)cc32)n1 (single isomer, unassigned) [Example E137]"
20,≤ 1000 nM,"COc1nc(N2CC3CCC(C2)O3)cc(-n2ncc3cc(C)c(C4CCN(C5COC5)CC4)cc32)n1 [Example E41, 3-(2-Methoxy-6-(5-methyl-6-(1-(oxetan-3-yl)piperidin-4-yl)-1H-indazol-1-yl)pyrimidin-4-yl)-8-oxa-3-azabicyclo[3.2.1]octane]"
21,≤ 1000 nM,"Cc1nc(N2CC3CC2CN3C2COC2)cc(-n2ncc3cc(C)c([C@H]4CC[C@@](C)(O)CC4)cc32)n1 (stereo partly drawn) [Example E30, Cis-1-methyl-4-(5-methyl-1-(2-methyl-6-((1S,4S)-5-(oxetan-3-yl)-2,5-diazabicyclo[2.2.1]heptan-2-yl)pyrimidin-4-yl)-1H-indazol-6-yl)cyclohexanol]"
22,≤ 1000 nM,"COc1nc(N2C[C@H]3C[C@@H]2CO3)cc(-n2ncc3cc(C)c(C4CCNCC4)cc32)n1 [Example E58, (1R,4R)-5-(2-methoxy-6-(5-methyl-6-(piperidin-4-yl)-1H-indazol-1-yl)pyrimidin-4-yl)-2-oxa-5-azabicyclo[2.2.1]heptane]"
23,≤ 1000 nM,"Cc1nc(N2C[C@@H]3C[C@H]2CO3)cc(-n2ncc3cc(C)c([C@H]4CC[C@](C)(O)CC4)cc32)n1 [Example E8, Trans-4-(1-(6-((1S,4S)-2-oxa-5-azabicyclo[2.2.1]heptan-5-yl)-2-methylpyrimidin-4-yl)-5-methyl-1H-indazol-6-yl)-1-methylcyclohexanol]"
24,≤ 1000 nM,"Cc1nc(N2C[C@H]3C[C@@H]2CO3)cc(-n2ncc3cc(C)c(C4CCN(C(=O)CO)CC4)cc32)n1 [Example E53, 1-(4-(1-(6-((1R,4R)-2-oxa-5-azabicyclo[2.2.1]heptan-5-yl)-2-methylpyrimidin-4-yl)-5-methyl-1H-indazol-6-yl)piperidin-1-yl)-2-hydroxyethanone]"
25,≤ 1000 nM,"COc1nc(N2CC3CC2CO3)cc(-n2ncc3cc(C)c([C@H]4CC[C@](C)(O)CC4)cc32)n1 (single isomer, unassigned) [Example E12]"

row,SMILES,IC50
1,"COc1nc(N2CC3CC(C2)O3)cc(-n2ncc3cc(C)c(C4CCN(C5COC5)CC4)cc32)n1 [Example E43, 3-(2-Methoxy-6-(5-methyl-6-(1-(oxetan-3-yl)piperidin-4-yl)-1H-indazol-1-yl)pyrimidin-4-yl)-6-oxa-3-azabicyclo[3.1.1]heptane]",≤ 1000 nM
